# Data from patent US20260159497A1, “SOLID FORMS OF A COMPLEMENT FACTOR B INHIBITOR” (Novartis Pharma AG, priority 2022, published 2026).
# Where two headings read alike, the source gives them in different places.
# Assays:
# [1] = Pharmacokinetic study after oral dosing, rat; format: in vivo, SD Rat; conditions: male, SD (Sprague-Dawley), rat, in vivo, po, solution in 20% kleptose in water, SD Rat male, Fed, 10 mL/kg; for AUC(0-t) / concentration at 24 h: oral; for AUC(0-t): read-out: AUC0-24 h; for concentration at 24 h: read-out: C24 h
# Procedure: (§1) The pharmacokinetic profile of (S)-4-(2,2-difluoro-7-((5-methoxy-7-methyl-1H-indol-4-yl)methyl)-7-azaspiro[3.5]nonan-6-yl)benzoic acid was assessed in rats, dogs or non-human primates (NHPs) as the amorphous compound as a solution in 20% kleptose in water and as a suspension of Form A in 0.5% methocel+0.1% tween 80 in water.
# (§2) Amorphous (S)-4-(2,2-difluoro-7-((5-methoxy-7-methyl-1H-indol-4-yl)methyl)-7-azaspiro[3.5]nonan-6-yl)benzoic acid was weighed into a glass vial with a magnetic stir bar to give formulations at dose concentrations of 0.1-1000 mg/kg. Approx. ⅓ the final volume of 20% kleptose (hydroxypropyl β-cyclodextrin, Aldrich, CAS #128446-35-5) in water was added to the vial (to afford either a 5 mL/kg or 10 mL/kg dose volume, depending on the species). The mixture was basified to a pH of 8.5 to 10 using dropwise addition of 2-5 M aqueous NaOH solution, with pH monitoring. The suspension was stirred, vortexed, and sonicated for 15-20 minutes to afford a homogenous mixture. The second ⅓ of the final volume of 20% kleptose was added to the vial and further stirred, vortexed, and sonicated for 15-20 minutes to afford a homogenous mixture. The pH was monitored and further pH adjustment to pH 8.5 to 10, if necessary, can be applied. The final ⅓ the final volume of 20% kleptose was added to the vial and further stirred, vortexed, and sonicated for 15-20 minutes to afford a homogenous solution. The pH of the solution was adjusted to a pH of 7.5 to 8.0 with dropwise addition of 1.0 M aqueous HCl solution with gentle stirring. The formulation should remain in solution.
# Form A crystalline (S)-4-(2,2-difluoro-7-((5-methoxy-7-methyl-1H-indol-4-yl)methyl)-7-azaspiro[3.5]nonan-6-yl)benzoic acid was weighed into a glass vial with a magnetic stir bar to give formulations at dose concentrations of 0.1-1000 mg/kg. The crystalline material should preferably have a particle size with a D50 below 50 μm, and ideally with a D50 below 5 μm. The desired volume of 0.5% methocel (viscosity 400 cP, Aldrich, CAS #9004-67-5)/0.1% tween-80 (Aldrich, CAS #9005-65-6) was added (to afford a 5 mL/kg dose volume). The contents of the vial were stirred at 400-500 rpm on a stir-plate. Gentle vortex or bath sonication can be applied to break down any large clumps. The vial should be mixed well to ensure homogeneity right before animal dosing.
# [2] = Pharmacokinetic study after oral dosing, non-human primate; conditions: cynomolgus monkey, in vivo, solution in 20% kleptose in water, Cyno male, 30 mg/kg, Fed, 5 mL/kg
# Procedure: as §1, §2
# [3] = Pharmacokinetic study after oral dosing, dog; conditions: in vivo, solution in 20% kleptose in water, Dog beagle male, Fasted, 5 mL/kg; for AUC(0-t): read-out: AUC0-24 h; for concentration at 24 h: read-out: C24 h
# Procedure: as §1, §2
# [4] = Solubility in Simulated Fluids at 37° C.; format: physicochemical; conditions: for solubility at 24 h / solubility at 30 min: 37 °C, thermodynamic from solid; for solubility at 24 h: read-out: Solubility (mg/mL) 24 h; for solubility at 30 min: read-out: Solubility (mg/mL) 30 min
# Description: Solubility data of Form A (S)-4-(2,2-difluoro-7-((5-methoxy-7-methyl-1H-indol-4-yl)methyl)-7-azaspiro[3.5]nonan-6-yl)benzoic acid, Form B (S)-4-(2,2-difluoro-7-((5-methoxy-7-methyl-1H-indol-4-yl)methyl)-7-azaspiro[3.5]nonan-6-yl)benzoic acid p-toluene sulfonic acid salt, Form C (S)-4-(2,2-difluoro-7-((5-methoxy-7-methyl-1H-indol-4-yl)methyl)-7-azaspiro[3.5]nonan-6-yl)benzoic acid p-toluene sulfonic acid salt, and Form D (S)-4-(2,2-difluoro-7-((5-methoxy-7-methyl-1H-indol-4-yl)methyl)-7-azaspiro[3.5]nonan-6-yl)benzoic acid hydrochloride salt in Simulated Fluids at 37° C.
# [5] = Dynamic vapor sorption (DVS) mass change; format: physicochemical; conditions: 95% RH at 25° C.
# Description: [table] The mass change by DVS isotherm (2 cycles 40-0-95-0-40% RH) are in the tables below. The mass change is based on the dry weight of each.
# [6] = after 12 weeks of treatment; cited from earlier work
# [7] = fassgf or other biorelevant, FaSSGF, 24 h
compound,measurement,setting,value
"COc1cc(C)c2[nH]ccc2c1CN1CCC2(C[C@H]1c1ccc(C(=O)O)cc1)CC(F)(F)C2 [(S)-4-(2,2-difluoro-7-((5-methoxy-7-methyl-1H-indol-4-yl)methyl)-7-azaspiro[3.5]nonan-6-yl)benzoic acid]",AUC(0-t),"[1]; 2 mg/kg, 2 mg/kg",20.5 µM·h
same,concentration at 24 h,"[1]; 2 mg/kg, 2 mg/kg",0.21 µM
same,Cmax,[1]; 2 mg/kg,2.42 µM
same,AUC(0-t),"[1]; 300 mg/kg, 300 mg/kg",1110 µM·h
same,concentration at 24 h,"[1]; 300 mg/kg, 300 mg/kg",18 µM
same,Cmax,[1]; 300 mg/kg,94 µM
same,Cmax,[2],8.6 µM
same,AUC(0-t),[2]; read-out: AUC0-24 h,96.1 µM·h
same,concentration at 24 h,[2]; read-out: C24 h,1.75 µM
same,Cmax,[3]; 2 mg/kg,3.64 µM
same,AUC(0-t),[3]; 2 mg/kg,54.3 µM·h
same,concentration at 24 h,[3]; 2 mg/kg,1.73 µM
same,Cmax,[3]; 100 mg/kg,139 µM
same,AUC(0-t),[3]; 100 mg/kg,1320 µM·h
same,concentration at 24 h,[3]; 100 mg/kg,18.8 µM
"COc1cc(C)c2[nH]ccc2c1CN1CCC2(C[C@H]1c1ccc(C(=O)O)cc1)CC(F)(F)C2.Cc1ccc(S(=O)(=O)O)cc1 [Form C, (S)-4-(2,2-difluoro-7-((5-methoxy-7-methyl-1H-indol-4-yl)methyl)-7-azaspiro[3.5]nonan-6-yl)benzoic acid p-toluene sulfonic acid salt]",solubility at 24 h,[4]; [7],0.85 mg/mL
same,pH at 24 h,[4]; FaSSGF,1.56
same,Solubility (mg/mL) 30 min,"[4]; FaSSGF, 30 min",0.87 mg/mL
same,pH at 24 h,[4]; FaSSIF,6.25
same,Solubility (mg/mL) 30 min,"[4]; FaSSIF, 30 min",1.68 mg/mL
same,Solubility (mg/mL) 24 h,"[4]; FaSSIF, 24 h",0.13 mg/mL
same,pH at 24 h,[4]; FeSSIF,4.97
same,Solubility (mg/mL) 30 min,"[4]; FeSSIF, 30 min",1.63 mg/mL
same,Solubility (mg/mL) 24 h,"[4]; FeSSIF, 24 h",1.69 mg/mL
same,pH at 24 h,"[4]; Water, initial pH 7.00",3.37
same,Solubility (mg/mL) 30 min,"[4]; Water, initial pH 7.00, 30 min",0.88 mg/mL
same,Solubility (mg/mL) 24 h,"[4]; Water, initial pH 7.00, 24 h",1.12 mg/mL
same,moisture absorbed by DVS (absorbs up to),[5],up to 0.4%
"COc1cc(C)c2[nH]ccc2c1CN1CCC2(C[C@H]1c1ccc(C(=O)O)cc1)CC(F)(F)C2.Cl [Form D, (S)-4-(2,2-difluoro-7-((5-methoxy-7-methyl-1H-indol-4-yl)methyl)-7-azaspiro[3.5]nonan-6-yl)benzoic acid hydrochloride salt]",solubility at 30 min,"[4]; fassgf or other biorelevant, FaSSGF, 30 min",2.25 mg/mL
same,solubility at 24 h,[4]; [7],> 2 mg/mL
same,solubility at 30 min,"[4]; fassif, FaSSIF, 30 min",2.19 mg/mL
same,solubility at 24 h,"[4]; fassif, FaSSIF, 24 h",> 2 mg/mL
same,solubility at 30 min,"[4]; fessif, FeSSIF, 30 min",2.19 mg/mL
same,solubility at 24 h,"[4]; fessif, FeSSIF, 24 h",2.33 mg/mL
same,solubility at 30 min,"[4]; pH 7, water, Water, initial pH 7.00, 30 min",2.08 mg/mL
same,solubility at 24 h,"[4]; pH 7, water, Water, initial pH 7.00, 24 h",> 2 mg/mL
same,pH at 24 h,[4]; FaSSGF,1.57
same,pH at 24 h,[4]; FaSSIF,6.17
same,pH at 24 h,[4]; FeSSIF,4.95
same,pH at 24 h,"[4]; Water, initial pH 7.00",3.13
CCO[C@H]1CCN(Cc2c(OC)cc(C)c3[nH]ccc23)[C@H](c2ccc(C(=O)O)cc2)C1 [iptacopan],efficacy in Phase II clinical trial in C3G,[6],reduced proteinuria
